Measured values reported in PubChem BioAssay AID1919009 (Molecular Pharmacology Branch, DTP, NCI, 2023).

Tested on: K24384-001-R-PDC complex spheroid growth
Experiment: Anticancer human tumor K24384-001-R-PDC patient-derived pancreatic adenocarcinoma cell line growth inhibition [AhR]
Conditions: for IC50: curve of first compound; for viability, T/C: stronger effect = lower value
Outline: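 Complex tumor spheroids co-cultured with HUVEC and human MSC stroma; AhR antagonists tested in combination with standard-of-care and investigational agents. Top concentration at or near clinical Cmax (else 10 microM), half-log dilutions; growth expressed as percent test/control.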

[1] = second compound 0.1 µM, first compound 0.00316 µM
[2] = second compound 0.1 µM, first compound 0.01 µM
[3] = second compound 0.1 µM, first compound 0.0316 µM
[4] = second compound 0.1 µM, first compound 0.1 µM
[5] = second compound 0.316 µM, first compound 0.00316 µM
[6] = second compound 0.316 µM, first compound 0.01 µM
[7] = second compound 0.316 µM, first compound 0.0316 µM
[8] = second compound 0.316 µM, first compound 0.1 µM
[9] = second compound 1 µM, first compound 0.00316 µM
[10] = second compound 1 µM, first compound 0.01 µM
[11] = second compound 1 µM, first compound 0.0316 µM
[12] = second compound 1 µM, first compound 0.1 µM
[13] = second compound 3.16 µM, first compound 0.00316 µM
[14] = second compound 3.16 µM, first compound 0.01 µM
[15] = second compound 3.16 µM, first compound 0.0316 µM
[16] = second compound 3.16 µM, first compound 0.1 µM
[17] = second compound 10 µM, first compound 0.00316 µM
[18] = second compound 10 µM, first compound 0.01 µM
[19] = second compound 10 µM, first compound 0.0316 µM
[20] = second compound 10 µM, first compound 0.1 µM
[21] = second compound 0.1 µM, first compound 0.316 µM
[22] = second compound 0.1 µM, first compound 1 µM
[23] = second compound 0.1 µM, first compound 3.16 µM
[24] = second compound 0.1 µM, first compound 10 µM
[25] = second compound 0.316 µM, first compound 0.316 µM
[26] = second compound 0.316 µM, first compound 1 µM
[27] = second compound 0.316 µM, first compound 3.16 µM
[28] = second compound 0.316 µM, first compound 10 µM
[29] = second compound 1 µM, first compound 0.316 µM
[30] = second compound 1 µM, first compound 1 µM
[31] = second compound 1 µM, first compound 3.16 µM
[32] = second compound 1 µM, first compound 10 µM
[33] = second compound 3.16 µM, first compound 0.316 µM
[34] = second compound 3.16 µM, first compound 1 µM
[35] = second compound 3.16 µM, first compound 3.16 µM
[36] = second compound 3.16 µM, first compound 10 µM
[37] = second compound 10 µM, first compound 0.316 µM
[38] = second compound 10 µM, first compound 1 µM
[39] = second compound 10 µM, first compound 3.16 µM
[40] = second compound 10 µM, first compound 10 µM
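Wherever viability, T/C is given: percent of DMSO vehicle-treated spheroid viability set as 100%.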

| Compound | IC50 (second compound 0.1 µM) | IC50 (second compound 0.316 µM) | IC50 (second compound 1 µM) | IC50 (second compound 3.16 µM) | IC50 (second compound 10 µM) | viability, T/C [3] | viability, T/C [4] | viability, T/C [7] | viability, T/C [8] | viability, T/C [11] | viability, T/C [12] | viability, T/C [15] | viability, T/C [16] | viability, T/C [19] | viability, T/C [20] | viability, T/C [21] | viability, T/C [22] | viability, T/C [25] | viability, T/C [26] | viability, T/C [29] | also measured |
| --- | --- | --- | --- | --- | --- | --- | --- | --- | --- | --- | --- | --- | --- | --- | --- | --- | --- | --- | --- | --- | --- |
| CC[C@@]1(O)C(=O)OCc2c1cc1n(c2=O)Cc2cc3c(CN(C)C)c(O)ccc3nc2-1 + Cc1cncc(-c2nc(NCCc3c[nH]c4ccccc34)c3ncn(C(C)C)c3n2)c1 | 42.4 nM | 42.2 nM | 30.7 nM | > 100 nM | < 0.316 nM | 55.5% | 37.4% | 51.6% | 38.2% | 49.1% | 47% | 52% | 49.4% | 5.07% | 6.81% |  |  |  |  |  | viability, T/C (second compound 0.1 µM, first compound 0.000316 µM): 97.6%; viability, T/C (second compound 0.1 µM, first compound 0.001 µM): 92.5%; viability, T/C [1]: 81.2%; viability, T/C [2]: 67.5%; viability, T/C (second compound 0.316 µM, first compound 0.000316 µM): 118%; viability, T/C (second compound 0.316 µM, first compound 0.001 µM): 100%; viability, T/C [5]: 87.9%; viability, T/C [6]: 73.9%; viability, T/C (second compound 1 µM, first compound 0.000316 µM): 91.3%; viability, T/C (second compound 1 µM, first compound 0.001 µM): 111%; viability, T/C [9]: 95.5%; viability, T/C [10]: 72.4%; viability, T/C (second compound 3.16 µM, first compound 0.000316 µM): 84.3%; viability, T/C (second compound 3.16 µM, first compound 0.001 µM): 93.8%; viability, T/C [13]: 86.4%; viability, T/C [14]: 59.3%; viability, T/C (second compound 10 µM, first compound 0.000316 µM): 12.7%; viability, T/C (second compound 10 µM, first compound 0.001 µM): 10.1%; viability, T/C [17]: 14.5%; viability, T/C [18]: 7.56% |
| COc1cc(C2c3cc4c(cc3C(OC3OC5COC(C)OC5C(O)C3O)C3COC(=O)C23)OCO4)cc(OC)c1O (stereo not given) + Cc1cncc(-c2nc(NCCc3c[nH]c4ccccc34)c3ncn(C(C)C)c3n2)c1 | 563 nM | 722 nM | 1650 nM | 806 nM | < 31.6 nM | 88.4% | 109% | 101% | 107% | 101% | 90.2% | 105% | 81.8% | 13.1% | 15.2% | 62.5% | 41.3% | 68.1% | 47.2% | 81.3% | viability, T/C [23]: 40%; viability, T/C [24]: 31.1%; viability, T/C [27]: 35.4%; viability, T/C [28]: 33.8%; viability, T/C [30]: 54.8%; viability, T/C [31]: 42.1%; viability, T/C [32]: 35.2%; viability, T/C [33]: 86.4%; viability, T/C [34]: 41.2%; viability, T/C [35]: 37.1%; viability, T/C [36]: 30.2%; viability, T/C [37]: 13.7%; viability, T/C [38]: 5.82%; viability, T/C [39]: 6.89%; viability, T/C [40]: 5.29% |
| COc1cccc2c1C(=O)c1c(O)c3c(c(O)c1C2=O)CC(O)(C(=O)CO)CC3OC1CC(N)C(O)C(C)O1 (stereo not given) + Cc1cncc(-c2nc(NCCc3c[nH]c4ccccc34)c3ncn(C(C)C)c3n2)c1 | 43.2 nM | < 31.6 nM | 42.2 nM | < 31.6 nM | < 31.6 nM | 56.2% | 32.3% | 43.8% | 39.4% | 53.4% | 39.8% | 41.2% | 35.8% | 6.65% | 10.3% | 22% | 6.38% | 18.6% | 4.66% | 14.4% | viability, T/C [23]: 2.85%; viability, T/C [24]: 7.5%; viability, T/C [27]: 4.69%; viability, T/C [28]: 7.35%; viability, T/C [30]: 4.5%; viability, T/C [31]: 2.69%; viability, T/C [32]: 5.17%; viability, T/C [33]: 10.2%; viability, T/C [34]: 2.01%; viability, T/C [35]: 3.75%; viability, T/C [36]: 5.63%; viability, T/C [37]: 4.38%; viability, T/C [38]: 1.31%; viability, T/C [39]: 1.89%; viability, T/C [40]: 2.29% |
| Nc1ccn(C2OC(CO)C(O)C2(F)F)c(=O)n1 (stereo not given) + Cc1cncc(-c2nc(NCCc3c[nH]c4ccccc34)c3ncn(C(C)C)c3n2)c1 | 507 nM | 636 nM | 928 nM | 3070 nM | < 31.6 nM | 73.7% | 74.8% | 104% | 79.1% | 98.1% | 111% | 117% | 114% | 13.9% | 11.2% | 51.2% | 42.9% | 50.8% | 51.1% | 74.2% | viability, T/C [23]: 32.4%; viability, T/C [24]: 24.5%; viability, T/C [27]: 35.1%; viability, T/C [28]: 19.6%; viability, T/C [30]: 50.4%; viability, T/C [31]: 41.6%; viability, T/C [32]: 29.2%; viability, T/C [33]: 83.9%; viability, T/C [34]: 70.1%; viability, T/C [35]: 51.7%; viability, T/C [36]: 31.2%; viability, T/C [37]: 13.6%; viability, T/C [38]: 8.91%; viability, T/C [39]: 10.4%; viability, T/C [40]: 10.4% |
| Nc1ncn(C2CC(O)C(CO)O2)c(=O)n1 (stereo not given) + Cc1cncc(-c2nc(NCCc3c[nH]c4ccccc34)c3ncn(C(C)C)c3n2)c1 | > 1000 nM | > 1000 nM | > 1000 nM | > 1000 nM | < 3.16 nM | 92.8% | 77.5% | 95.8% | 77.7% | 103% | 82.5% | 87.8% | 66.8% | 14.8% | 10.8% | 62.8% | 51.1% | 72.2% | 63.6% | 99.4% | viability, T/C [1]: 83.2%; viability, T/C [2]: 97.6%; viability, T/C [5]: 91.1%; viability, T/C [6]: 101%; viability, T/C [9]: 80.2%; viability, T/C [10]: 101%; viability, T/C [30]: 66%; viability, T/C [13]: 83.1%; viability, T/C [14]: 100%; viability, T/C [33]: 67.9%; viability, T/C [34]: 70.2%; viability, T/C [17]: 13.3%; viability, T/C [18]: 14.3%; viability, T/C [37]: 8.89%; viability, T/C [38]: 11.4% |
